Experimental data: US12497396B2, “Nitrogen-containing heterocyclic derivatives, method therefor and application therefor as inhibitors of KRAS G12C for the treatment of cancers” (SHANGHAI HANSOH BIOMEDICAL CO., LTD., priority 2019, dated 2025)

How the values were obtained:
[1] = biological target: T1, hERG potassium channel (Homo sapiens, UniProt Q12809); experiment: hERG potassium channel inhibitory activity (Qpatch, CHO-hERG cells); type: cell-based; conditions: inhibition of hERG current, multiple concentrations
T1 construct: expressed in transfected cells; host or cells: CHO-hERG cells
Experimental: 7.1.1 CHO-hERG cells were cultured in a 175 cm^2 flask, when the cell density reached 60-80%, the culture medium was removed, the cells were washed with 7 mL PBS, and then digested with 3 mL Detachin.
7.1.2 After complete digestion, 7 mL culture medium was added to neutralize, then the mixture was centrifuged, the supernatant was aspirated, and then 5 mL culture medium was added to re-suspend, ensuring 2-5×10^6/mL of cell density.
The process of single cell high impedance sealing and whole cell mode formation were all automatically completed by Qpatch instrument, after obtaining the whole cell recording mode, the cells were clamped at −80 mV, before giving a 5-second +40 mV depolarization stimulus, a 50 millisecond −50 mV prevoltage was given first, and then repolarized to −50 mV for 5 seconds, then returned to −80 mV. This voltage stimulation was applied every 15 seconds and recorded for 2 minutes before giving extracellular fluid recordings for 5 minutes, and then the administration process was started, the compound concentration was given from the lowest test concentration, each test concentration was given for 2.5 minutes, and the positive control compound 0.1 μM of Cisapride was given after all concentrations were continuously given. At least 3 cells (n≥3) were tested at each concentration.
7.4.1 20 mM of compound mother liquor was diluted with extracellular fluid, 5 μL of 20 mM compound mother liquor was added into 2495 μL of extracellular fluid and diluted 500-fold to 40 μM, and then the final concentration to be tested was obtained by sequential 3-fold serial dilutions in extracellular solution containing 0.2% DMSO.
7.4.2 The highest test concentration was 40 μM, in a total of 6 concentrations of 40, 13.33, 4.44, 1.48, 0.49 and 0.16 μM respectively.
7.4.3 The content of DMSO in the final test concentration was not more than 0.2%, and this concentration of DMSO had no effect on hERG potassium channel.
The experimental data were analyzed by XLFit software.

[2] = Plasma protein binding rate, rat plasma; type: in vitro ADME; conditions: 37° C.
Experimental: (§1) The embodiment compound was prepared into a 1 mM solution A with DMSO.
(§2) Solution A was added to the plasma solution and prepared into a 5 μM solution B.
(§3) • 1) 200 μL of solution B was added into the membrane. • 2) 350 μL of PBS was added to the outside of the membrane. • 3) Incubating in a 37° C. water bath for 6 hours. • 4) The samples were processed for dilution and detected by mass spectrometry.
(§4) • Instrument: Shimadzu LC-20 AD; • Chromatographic column: phenomenex Gemiu® C18 (50*4.6 mm, 5 μM particle size); • Mobile phase: A: Acetonitrile, B: 0.1% formic acid solution 0-0.5 min: 5% A→90% A, 2.0-2.1 min: 90% A→5% A; flow rate: 0.8 mL/min; running time: 5.0 min; injection volume: 5 μL.
(§5) • Instrument: API4000 Liquid Chromatography-Mass Spectrometry, AB, USA; • the ion source was electrospray ionization source (ESI); • the temperature of dry gas (N2) was 500° C.; • electrospray voltage was 5500V; • the detection method was positive ion detection; • the scanning mode was selective response monitoring (MRM); the scanning time was 0.1 s.

[3] = Plasma protein binding rate, dog plasma; type: in vitro ADME; conditions: 37° C.
Experimental: as §1, §2, §3, §4, §5

[4] = system: NCI-H358 cells (KRAS G12C mutant cell line); experiment: Inhibition of NCI-H358 cell proliferation (CellTiter-Glo, 72 h); type: cell-based, human; conditions: Homo sapiens
Summary of the method: (§6)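 Cells were seeded overnight at 37 °C, 5% CO2, then exposed to serially diluted compound (DMSO/medium) alongside a solvent control for 72 h. Viability was read by CellTiter-Glo luminescence, and IC50 was derived by nonlinear regression of inhibition rate against concentration.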

[5] = system: Mia PaCa-2 cells (KRAS G12C mutant cell line); experiment: Inhibition of Mia PaCa-2 cell proliferation (CellTiter-Glo, 72 h); type: cell-based, human; conditions: Homo sapiens
Summary of the method: as §6

[6] = Plasma protein binding rate, human plasma; type: in vitro ADME; conditions: 37° C.
Experimental: as §1, §2, §3, §4, §5

[7] = Plasma protein binding rate, mouse plasma; type: in vitro ADME; conditions: 37° C.
Experimental: as §1, §2, §3, §4, §5

T1 sequence (Q12809 whole entry): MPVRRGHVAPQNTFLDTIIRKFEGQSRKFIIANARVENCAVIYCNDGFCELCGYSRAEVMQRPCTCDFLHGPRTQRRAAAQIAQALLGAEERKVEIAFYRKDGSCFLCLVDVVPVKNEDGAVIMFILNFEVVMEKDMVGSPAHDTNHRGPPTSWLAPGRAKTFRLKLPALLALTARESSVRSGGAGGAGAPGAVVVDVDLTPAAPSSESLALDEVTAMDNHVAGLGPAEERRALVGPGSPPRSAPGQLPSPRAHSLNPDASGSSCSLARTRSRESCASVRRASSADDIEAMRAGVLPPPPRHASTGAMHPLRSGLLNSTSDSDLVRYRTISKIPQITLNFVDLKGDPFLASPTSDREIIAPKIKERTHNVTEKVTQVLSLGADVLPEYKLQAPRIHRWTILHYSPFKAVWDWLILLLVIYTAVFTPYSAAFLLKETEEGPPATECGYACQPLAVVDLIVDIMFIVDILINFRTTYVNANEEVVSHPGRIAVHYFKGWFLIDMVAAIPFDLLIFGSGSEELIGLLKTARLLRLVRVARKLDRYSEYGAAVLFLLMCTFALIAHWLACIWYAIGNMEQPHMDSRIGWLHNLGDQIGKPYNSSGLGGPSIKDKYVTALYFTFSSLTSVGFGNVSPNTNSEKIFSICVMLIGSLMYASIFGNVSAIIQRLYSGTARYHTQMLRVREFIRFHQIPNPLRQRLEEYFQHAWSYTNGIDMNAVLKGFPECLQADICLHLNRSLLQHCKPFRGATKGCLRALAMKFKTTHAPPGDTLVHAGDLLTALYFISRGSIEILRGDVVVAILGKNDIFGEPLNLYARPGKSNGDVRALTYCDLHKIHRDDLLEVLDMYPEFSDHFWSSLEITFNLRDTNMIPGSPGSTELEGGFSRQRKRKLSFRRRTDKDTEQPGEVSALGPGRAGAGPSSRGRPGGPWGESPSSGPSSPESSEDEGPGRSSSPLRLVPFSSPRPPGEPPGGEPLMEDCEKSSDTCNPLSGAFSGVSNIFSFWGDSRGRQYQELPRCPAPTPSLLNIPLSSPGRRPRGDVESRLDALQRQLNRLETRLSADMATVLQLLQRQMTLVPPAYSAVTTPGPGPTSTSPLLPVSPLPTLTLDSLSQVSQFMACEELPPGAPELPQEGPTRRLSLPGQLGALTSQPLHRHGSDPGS

Structure (SMILES)	IC50 [1] [nM]	fraction unbound at 6 h, 5 μM [2]	fraction unbound at 6 h, 5 μM [3]	IC50 [4] [nM]	IC50 [5] [nM]	fraction unbound at 6 h, 5 μM [6]	fraction unbound at 6 h, 5 μM [7]
C=CC(=O)N1C[C@H](C)N(c2nc(=O)n(-c3c(SC)ccnc3C(C)C)c3nc(-c4c(N)ccc(Cl)c4F)c(Cl)cc23)C[C@H]1C (single isomer, unassigned) [Embodiment 165-1]	> 30000	0.021	0.013	6.6	3.3	0.003	0.061
C=CC(=O)N1C[C@H](C)N(c2nc(=O)n(-c3c(SC)ccnc3C(C)C)c3nc(-c4c(O)cccc4F)c(F)cc23)C[C@H]1C (single isomer, unassigned) [Embodiment 114-1]	> 30000	0.095	0.174	35	29	0.02	0.116
C=CC(=O)N1C[C@H](C)N(c2nc(=O)n(-c3c(SC)ccnc3C(C)C)c3nc(-c4c(O)cccc4F)c(Cl)cc23)C[C@H]1C (single isomer, unassigned) [Embodiment 166-1]	> 30000	0.046	0.075	17	11	0.032	0.037
